ChEMBL document CHEMBL4483862, “Open-source discovery of chemical leads for next-generation chemoprotective antimalarials” (2018)

Test system: Plasmodium berghei
Experiment: Luciferase/luciferin-expressing antifolate-resistant parasites were used to infect a culture of HepG2 cells that were pre-incubated with compounds. Infected hepatocytes emit light due to the luciferase reaction. Assay results are presented as the percent inhibition of light emission compared to control. […]
Format: functional
Conditions: sporozoite; for IC90: read-out: LUCIFERASE INFECTION ASSAY - IC90

SMILES	IC90 [µM]	other results
O=C1C=CC(=O)N1c1ccc(F)cc1F	13.8	IC50 (FFLUC_HILL_SLOPE 8.62, FFLUC_R_SQUARED 0.718, PBLUC_HILL_SLOPE 4.26, PBLUC_R_SQUARED 0.573, read-out: LUCIFERASE INFECTION ASSAY - IC50): 8.24 µM
Cc1onc(-c2ccc(Cl)cc2Cl)c1-c1csc(N/N=C/c2ccccc2Cl)n1	> 7.12	IC50 (FFLUC_HILL_SLOPE 8.51, FFLUC_R_SQUARED 0.488, HEPG2TOX_HILL_SLOPE 2.88, HEPG2TOX_R_SQUARED 0.834, read-out: LUCIFERASE INFECTION ASSAY - IC50): > 7.12 µM
CNc1nc2cnc(Nc3cccc(F)c3)cc2n1-c1cccc(C(F)(F)F)c1	> 10	IC50 (FFLUC_HILL_SLOPE 8.44, FFLUC_R_SQUARED 0.0352, read-out: LUCIFERASE INFECTION ASSAY - IC50): > 10 µM
COc1ccc(NS(=O)(=O)c2cc(NC(=O)c3cc(C4CC4)on3)ccc2N2CCCCC2)cc1	> 10	IC50 (FFLUC_HILL_SLOPE 8.45, FFLUC_R_SQUARED 0.551, read-out: LUCIFERASE INFECTION ASSAY - IC50): > 10 µM
Cc1cc2oc(=O)cc(Cn3cnc4sc(C)c(-c5ccccc5)c4c3=O)c2cc1Cl	> 10	IC50 (FFLUC_HILL_SLOPE 8.53, FFLUC_R_SQUARED 0.709, PBLUC_HILL_SLOPE 1.77, PBLUC_R_SQUARED 0.508, read-out: LUCIFERASE INFECTION ASSAY - IC50): 4.81 µM
C(=C(c1nc2ccccc2s1)c1nc2ccccc2s1)C1=C(c2ccccc2)Oc2ccccc2O1	> 10	IC50 (FFLUC_HILL_SLOPE 7.98, FFLUC_R_SQUARED 0.561, PBLUC_HILL_SLOPE 1.21, PBLUC_R_SQUARED 0.509, read-out: LUCIFERASE INFECTION ASSAY - IC50): 9.27 µM
NS(=O)(=O)c1ccc(CCNc2nn3c(-c4cccc(C(F)(F)F)c4)cnc3s2)cc1	> 7.06	IC50 (FFLUC_HILL_SLOPE 7.49, FFLUC_R_SQUARED 0.26, read-out: LUCIFERASE INFECTION ASSAY - IC50): > 7.06 µM
COCCCn1c(C)cc(C(=O)CSc2nc3scc(-c4ccccc4)c3c(=O)n2C)c1C	> 10	IC50 (FFLUC_HILL_SLOPE 7.71, FFLUC_R_SQUARED 0.356, PBLUC_HILL_SLOPE 2.63, PBLUC_R_SQUARED 0.68, read-out: LUCIFERASE INFECTION ASSAY - IC50): 6.41 µM
O/N=C/c1ncc(C(F)(F)F)cc1Sc1ccc(Cl)cc1	> 9.92	IC50 (FFLUC_HILL_SLOPE 8, FFLUC_R_SQUARED 0.0374, HEPG2TOX_HILL_SLOPE 8.44, HEPG2TOX_R_SQUARED 0.673, PBLUC_HILL_SLOPE 11.8, PBLUC_R_SQUARED 0.204, read-out: LUCIFERASE INFECTION ASSAY - IC50): 9.28 µM
O=C(Nc1ccc(S(=O)(=O)N2CCCC2)cc1)c1cc([N+](=O)[O-])ccc1Sc1nnnn1-c1ccccc1	> 10	IC50 (FFLUC_HILL_SLOPE 8.42, FFLUC_R_SQUARED 0.732, read-out: LUCIFERASE INFECTION ASSAY - IC50): > 10 µM
O=C(CSc1nn(Cc2ccccc2)/c(=N\Cc2ccccc2)s1)NC(=O)NC1CCCCC1	> 10	IC50 (FFLUC_HILL_SLOPE 7.96, FFLUC_R_SQUARED 0.22, read-out: LUCIFERASE INFECTION ASSAY - IC50): > 10 µM
COC(=O)c1ccc(OC(=O)c2cc3c(s2)CCC3)cc1	> 10	IC50 (FFLUC_HILL_SLOPE 8.2, FFLUC_R_SQUARED 0.68, read-out: LUCIFERASE INFECTION ASSAY - IC50): > 10 µM
CN1CCN(c2ccc(-c3cn4c(-c5ccc(O)cc5)cnc4cn3)cc2)CC1	> 8.56	IC50 (FFLUC_HILL_SLOPE 7.73, FFLUC_R_SQUARED 0.293, read-out: LUCIFERASE INFECTION ASSAY - IC50): > 8.56 µM
CC(C)NC(=O)Nc1ccc(OCc2ncc(C(F)(F)F)cc2Cl)cc1	> 8.51	IC50 (FFLUC_HILL_SLOPE 8.07, FFLUC_R_SQUARED 0.113, HEPG2TOX_HILL_SLOPE 6.87, HEPG2TOX_R_SQUARED 0.428, PBLUC_HILL_SLOPE 0.555, PBLUC_R_SQUARED 0.618, read-out: LUCIFERASE INFECTION ASSAY - IC50): 1.56 µM
C=CCN(c1ccc(F)cc1)S(=O)(=O)c1cc(C(=O)OCC(=O)C23CC4CC(CC(C4)C2)C3)ccc1Cl	> 10	IC50 (FFLUC_HILL_SLOPE 7.93, FFLUC_R_SQUARED 0.0643, HEPG2TOX_HILL_SLOPE 7, HEPG2TOX_R_SQUARED 0.225, PBLUC_HILL_SLOPE 4.62, PBLUC_R_SQUARED 0.186, read-out: LUCIFERASE INFECTION ASSAY - IC50): 6.94 µM
O=C(Cn1ncc(Cl)c(Cl)c1=O)Nc1cccc(Oc2ccccc2)c1	> 10	IC50 (FFLUC_HILL_SLOPE 8.65, FFLUC_R_SQUARED 0.47, PBLUC_HILL_SLOPE 2.15, PBLUC_R_SQUARED 0.511, read-out: LUCIFERASE INFECTION ASSAY - IC50): 6.79 µM

SMILES	IC90 [µM]	other results
Cc1cccc(Cn2nc(C(C)(C)C)cc2-c2nnc(SCC(=O)c3ccc(Cl)cc3)o2)c1	> 6.86	IC50 (FFLUC_HILL_SLOPE 7.72, FFLUC_R_SQUARED 0.435, PBLUC_HILL_SLOPE 3.63, PBLUC_R_SQUARED 0.42, read-out: LUCIFERASE INFECTION ASSAY - IC50): 6.23 µM
COCc1nn2c3c(nnc2c1-c1ccccc1)C(=O)CC(c1ccccc1)C3 (configuration not stated)	3.29	IC50 (FFLUC_HILL_SLOPE 8, FFLUC_R_SQUARED 0.814, HEPG2TOX_HILL_SLOPE 2.3, HEPG2TOX_R_SQUARED 0.367, PBLUC_HILL_SLOPE 4.06, PBLUC_R_SQUARED 0.599, read-out: LUCIFERASE INFECTION ASSAY - IC50): 1.92 µM
Cn1c(-c2ccc(Cl)cc2)csc1=Nc1ccc(Cl)c(Cl)c1	3.46	IC50 (FFLUC_HILL_SLOPE 8.54, FFLUC_R_SQUARED 0.841, PBLUC_HILL_SLOPE 1.64, PBLUC_R_SQUARED 0.468, read-out: LUCIFERASE INFECTION ASSAY - IC50): 0.91 µM
Cc1cc2n(n1)c(C)cc(C)[n+]2-c1ccccc1	4.57	IC50 (FFLUC_HILL_SLOPE 7.82, FFLUC_R_SQUARED 0.313, HEPG2TOX_HILL_SLOPE 3.53, HEPG2TOX_R_SQUARED 0.979, PBLUC_HILL_SLOPE 9.65, PBLUC_R_SQUARED 0.44, read-out: LUCIFERASE INFECTION ASSAY - IC50): 3.64 µM
Cc1sc2nc(-c3cccnc3)nc(N3CCOCC3)c2c1-c1ccccc1	9.9	IC50 (FFLUC_HILL_SLOPE 7.85, FFLUC_R_SQUARED 0.0779, PBLUC_HILL_SLOPE 15.6, PBLUC_R_SQUARED 0.278, read-out: LUCIFERASE INFECTION ASSAY - IC50): 8.61 µM
CC(C)Nc1nc(NCC2CCCCC2)c2sccc2n1	> 10.8	IC50 (FFLUC_HILL_SLOPE 8.35, FFLUC_R_SQUARED 0.136, PBLUC_HILL_SLOPE 0.461, PBLUC_R_SQUARED 0.456, read-out: LUCIFERASE INFECTION ASSAY - IC50): 1.8 µM
COc1ccc(-c2nnc(SCc3csc(-c4ccccc4)n3)n2CCc2ccccc2)cc1	> 10	IC50 (FFLUC_HILL_SLOPE 7.96, FFLUC_R_SQUARED 0.134, read-out: LUCIFERASE INFECTION ASSAY - IC50): > 10 µM
CCCCNC(=O)c1c(NC(=O)c2ccc(C(F)(F)F)cc2)nc2ccccn12	0.365	IC50 (FFLUC_HILL_SLOPE 8.16, FFLUC_R_SQUARED 0.656, HEPG2TOX_HILL_SLOPE 0.864, HEPG2TOX_R_SQUARED 0.784, PBLUC_HILL_SLOPE 12.7, PBLUC_R_SQUARED 0.564, read-out: LUCIFERASE INFECTION ASSAY - IC50): 0.306 µM
COc1ccc(O)c(C(=O)c2cnc(Nc3nc(C)c4ccccc4n3)nc2)c1	> 10	IC50 (FFLUC_HILL_SLOPE 8.56, FFLUC_R_SQUARED 0.251, read-out: LUCIFERASE INFECTION ASSAY - IC50): > 10 µM
NC(=O)C1CCN(c2nc(/C=C/c3ccccc3)nc3sc4c(c23)CCCC4)CC1	> 10	IC50 (FFLUC_HILL_SLOPE 8.41, FFLUC_R_SQUARED 0.401, PBLUC_HILL_SLOPE 20.5, PBLUC_R_SQUARED 0.298, read-out: LUCIFERASE INFECTION ASSAY - IC50): 9.42 µM
N#CC1c2ccccc2Oc2ccccc21	> 15.9	IC50 (FFLUC_HILL_SLOPE 8.54, FFLUC_R_SQUARED 0.413, HEPG2TOX_HILL_SLOPE 16, HEPG2TOX_R_SQUARED 0.746, PBLUC_HILL_SLOPE 2.78, PBLUC_R_SQUARED 0.395, read-out: LUCIFERASE INFECTION ASSAY - IC50): 10.4 µM
CCOC(=O)C1=C(C)NC2=C(C(=O)C(c3c(F)cccc3Cl)CC2)C1c1ccc(Cl)cc1Cl (configuration not stated)	> 6.49	IC50 (FFLUC_HILL_SLOPE 7.96, FFLUC_R_SQUARED 0.479, HEPG2TOX_HILL_SLOPE 1.9, HEPG2TOX_R_SQUARED 0.947, PBLUC_HILL_SLOPE 15.9, PBLUC_R_SQUARED 0.177, read-out: LUCIFERASE INFECTION ASSAY - IC50): 6.08 µM
NC(=O)c1ccsc1NC(=O)CN1CCC(c2c[nH]c3ccccc23)CC1	> 10	IC50 (FFLUC_HILL_SLOPE 7.73, FFLUC_R_SQUARED 0.279, read-out: LUCIFERASE INFECTION ASSAY - IC50): > 10 µM
O=c1[nH]c2ccccc2c(-c2ccccc2)c1SCc1ccc2c(c1)OCO2	> 10	IC50 (FFLUC_HILL_SLOPE 8.09, FFLUC_R_SQUARED 0.216, HEPG2TOX_HILL_SLOPE 4.47, HEPG2TOX_R_SQUARED 0.957, PBLUC_HILL_SLOPE 2.12, PBLUC_R_SQUARED 0.535, read-out: LUCIFERASE INFECTION ASSAY - IC50): 4.38 µM
O=C1C(Cl)=C(Nc2ccc(O)cc2)C(=O)c2ccccc21	4.51	IC50 (FFLUC_HILL_SLOPE 7.86, FFLUC_R_SQUARED 0.408, HEPG2TOX_HILL_SLOPE 4.2, HEPG2TOX_R_SQUARED 0.984, PBLUC_HILL_SLOPE 12.7, PBLUC_R_SQUARED 0.571, read-out: LUCIFERASE INFECTION ASSAY - IC50): 3.8 µM
